One assay has as its system E. coli. As to the kind of experiment: Time kill test (rapid germicidal activity) against E. coli. The class given is cell-based, Escherichia coli. To be noted: 2% active aqueous solution. The procedure: (§1) a) Determination of Rapid Germicidal (Time Kill) Activity of Antibacterial Products. The activity of antibacterial compositions was measured by the time kill method, whereby the survival of challenged organisms exposed to an antibacterial test composition is determined as a function of time. In this test, a diluted aliquot of the composition is brought into contact with a known population of test bacteria for a specified time period at a specified temperature. The test composition is neutralized at the end of the time period, which arrests the antibacterial activity of the composition. The percent or, alternatively, log reduction from the original bacteria population is calculated. In general, the time kill method is known to those skilled in the art. The composition can be tested at any concentration from 0-100%. The choice of which concentration to use is at the discretion of the investigator, and suitable concentrations are readily determined by those skilled in the art. […] The test sample is placed in a sterile 250 ml beaker equipped with a magnetic stirring bar and the sample volume is brought to 100 ml, if needed, with sterile deionized water. All testing is performed in triplicate, the results are combined, and the average log reduction is reported. The choice of contact time period also is at the discretion of the investigator. Any contact time period can be chosen. […] The contact temperature also can be any temperature, typically room temperature, or about 25 degrees Celsius. The bacterial suspension, or test inoculum, is prepared by growing a bacterial culture on any appropriate solid media (e.g., agar). The bacterial population then is washed from the agar with sterile physiological saline and the population of the bacterial suspension is adjusted to about 10^8 colony forming units per ml (cfu/ml). The table below lists-the test bacterial cultures used in the following tests and includes the name of the bacteria, the ATCC (American Type Culture Collection) identification number, and the abbreviation for the name of the organism used hereafter. [table] The beaker containing the test composition is placed in a water bath (if constant temperature is desired), or placed on a magnetic stirrer (if ambient laboratory temperature is desired). The sample then is inoculated with 1.0 ml of the test bacteria suspension. The inoculum is stirred with the test composition for the predetermined contact time. […] Decimal dilutions to a countable range then are made. The dilutions can differ for different organisms. Plate selected dilutions in triplicate on TSA+ plates (TSA+ is Trypticase Soy Agar with Lecithin and Polysorbate 80). […] The control count (numbers control) is determined by conducting the procedure as described above with the exception that THT is used in place of the test composition. The plate counts are converted to cfu/ml for the numbers control and samples, respectively, by standard microbiological methods. The log reduction is calculated using the formula Log reduction=log10 (numbers control)−log10 (test sample survivors).

A further assay has as its system S. aureus. As to the kind of experiment: Time kill test (rapid germicidal activity) against S. aureus. In kind it is cell-based, Staphylococcus aureus. To be noted: 2% active aqueous solution. The procedure:
as §1

Some results are limits rather than exact numbers.

Regarding Lauramine oxide, the “log reduction after 30 seconds E. coli” value with E. coli (pH 4.93, 30 seconds) is on record as above 5.32 log; in the assay on E. coli (pH 5.50, 30 seconds), above 4.70 log; in the assay on E. coli (pH 6.02, 30 seconds), above 4.70 log; with E. coli (pH 6.5, 30 seconds) it was above 4.70 log; in the assay with E. coli (pH 7.0, 30 seconds) it was above 5.32 log; with E. coli (pH 7.53, 30 seconds), 0.88 log. In addition, the “log reduction after 30 seconds E. coli” value in the assay with E. coli (pH 8.94, 30 seconds) came out at 0.27 log; in the assay on E. coli (pH 10.14, 30 seconds), 0.11 log. Moreover, the “log reduction after 30 seconds S. aureus” value with S. aureus (pH 4.93, 30 seconds) is reported as 2.11 log; in the assay with S. aureus (pH 5.50, 30 seconds), above 4.38 log; in the assay with S. aureus (pH 6.02, 30 seconds), above 4.39 log; in the assay on S. aureus (pH 6.5, 30 seconds), above 4.39 log; in the assay on S. aureus (pH 7.0, 30 seconds) it was above 4.39 log; in the assay on S. aureus (pH 7.53, 30 seconds), above 4.39 log. The “log reduction after 30 seconds S. aureus” value is 4.33 log in the assay with S. aureus (pH 8.94, 30 seconds) and 3.75 log in the assay with S. aureus (pH 10.14, 30 seconds).

The values are drawn from patent US6616922B2, “Antibacterial compositions” (The Dial Corporation, priority 2001, dated 2003).
